Results: patent publication US20100316677A1, “USE OF BAMBOO LEAF TOTAL FLAVONES IN THE PREPARATION OF MEDICINE AND HEALTH FOOD FOR PREVENTION AND TREATMENT OF PROSTATIC DISEASES” (ZHEJIANG UNIVERSITY (HANGZHOU) LEAF BIO-TECHNOLOGY CO., LTD., priority 2003, published 2010)

What was measured:
[1] = system: growth of the prostate and accessorial sex organs; test: growth of the prostate and the accessorial sex organs of young mice; format: in vivo, ICR young male mice; conditions: 0.5 mg/kg sc once every 3 days, 5 times
Experimental: Assign ICR young male mice, body weight 10-12 g, into groups according to their body weight, 10-11 mice in each group: (1) controlled group: water of equal volume, 0.8 mL/20 g, ig; (2) estradiol group: estradiol 0.5 mg/kg, sc, once every 3 days, for 5 times; (3) high-dose group: EOB-f01 400 mg/kg, ig; (4) moderate-dose group: EOB-f01 200 mg/kg, ig; (5) low-dose group: EOB-f01 100 mg/kg, ig. Once per day, for 14 days. On the fifteenth day, sacrifice the mice, anatomize and weigh the abdominal, side, and back parts of the prostate, and seminal vesicle, testis, and elevator ani muscle.

[2] = system: prostatic hyperplasia caused by testosterone propionate; test: prostatic hyperplasia caused by testosterone propionate; format: in vivo, ICR mice; conditions: testosterone propionate mice, 0.5 mg/kg sc once every 3 days, 5 times
Experimental: Randomly assign ICR mice, male, body weight 18-21g, into 7 groups, 10-11 mice in each group: (1) controlled group: water of equal volume, 0.8 mL/20 g, ig; (2) model group: 0.8 mL/20 g water of equal volume, ig; (3) estradiol group: estradiol 0.5 mg/kg, sc, once every 3 days, for 5 times; (4) high-dose group: EOB-f01 400 mg/kg ig; (5) moderate-dose group: EOB-f01 200 mg/kg, ig; (6) low-dose group: EOB-f01 100 mg/kg, ig. Once per day, for 14 days. Except the controlled group (1), various groups (2)-(6) with testosterone propionate 5 mg/mL per day, sc, for 14 d. On the fifteenth day, sacrifice the mice, anatomize them, take and weigh the abdominal, side, and back parts of the prostate, and evaluate anti-hyperplasia effects of EOB-f01.

[3] = system: prostatitis caused by carrageenan; test: prostatitis caused by carrageenan (prostate weight, histopathology); format: in vivo, SD male rats; conditions: carrageenan rats
Experimental: […] Give the rats through gastric irrigation once per day, for 7 days (indomethacin, only once prior to operation), and begin the operation in 0.5 h after the final dose.
Conduct anesthesia for the rats, then fix them in supine position, shear off hair at their abdomen, and sterilized by iodine tinture; under sterilized condition, cut 1.5 cm at the center of their abdomen, expose the abdominal part of prostate, inject rats in (2)-(6) groups with 1% carrageenan saline, 0.02 mL/rat, with No. 4.5 syringe, immediately return the prostate to the abdominal cavity, add 1 drop of penicillin in the abdominal cavity, and immediately suture the abdominal cavity by two-layer ways. Replace carrageenan with saline 0.02 mL/rat, for rat in the controlled group (1), and conduct pseudo-operation. In 4 h after operation, sacrifice the rats, anatomize and separate each part of the prostate, weigh wet weight, and compare swelling extents between the dose groups and the model group. Take the abdominal part of the prostate of rats, fix with 10% formalin, dehydrate routinely, imbedded with paraffin, slice up, conduct HE staining, and observe pathological changes under a microscope.
Observation criteria for pathology of prostatic tissue from rats of each group: (1) Score of stroma swelling or blood vessel hyperemia: no stroma swelling or blood vessel hyperemia, 0; mild stroma swelling or blood vessel hyperemia, 1; moderate stroma swelling or blood vessel hyperemia, 2; severe stroma swelling or blood vessel hyperemia, 3; (2) Score of infiltration of inflammatory cells: no stroma inflammatory cells, 0; small amount of stroma inflammatory cells, 1; moderate amount of stroma inflammatory cells, 2; high amount of stroma inflammatory cells, 3; stroma diffuse inflammatory cells, 4.

[4] = system: swelling of ear auricle caused by xylene; test: swelling of ear auricle of mice caused by xylene; format: in vivo; conditions: 10 mg/kg ig once, blank control 11.4 ± 4.9
Experimental: Assign the mice into 5 groups according to their body weight, 10 mice in each group, as 2.1 section. Give the mice once per day through gastric irrigation (ig), for 7 days (indomethacin, given only once); in 30 min after the final dose, smear the right ear of the mice with xylene, 0.05 ml/mouse, cause inflammation, sacrifice them in 15 min, shear away their left and right ears, punch down their left and right ear slice with 9 mm trephine, and weigh them, taking the difference of weights between left and right ear slices as the swelling rate. Judge the effects compared with those of the controlled groups.

[5] = system: swelling of ear auricle caused by croton oil; test: swelling of ear auricle of mice caused by croton oil; format: in vivo; conditions: 10 mg/kg ig once, blank control 19.8 ± 2.9
Experimental: Randomly assign mice into 5 groups, 12 mice in each group, as follows: (1) Blank-controlled group: saline of equal volume, 0.8 mL/20 g; (2) Positive-controlled group: indomethacin 10 mg/kg; (3) High-dose group: 10 mg/mL EOB-f01, 400 mg/kg; (4) moderate-dose group: 5 mg/mL EOB-f01, 200 mg/kg; (5) Low-dose group: 2.5 mg/mL EOB-f01, 100 mg/kg. The animals received the administration through gastric irrigation (ig). once per day for 7 continuous days (for indomethacin, only once); in 1 h after the final dose, smear the right ear of the mice with 2% croton oil, 0.02 ml/mouse, cause inflammation, sacrifice them after 4 h, shear away their left and right ears, punch down their left and right ear slice with 9 mm trephine, and weigh them, taking the difference of weights between left and right ear slices as the swelling rate.

Row | SMILES | Prostate weights, Back part ([1]; blank control 4.2 ± 1.5) | Prostate weights, Abdominal part ([1]; blank control 6.7 ± 1.1) | Prostate weights, Side part ([1]; blank control 9.6 ± 3.3) | Seminal vesicle ([1]; organ weight, blank control 34.1 ± 11.3) | Elevator ani muscle ([1]; organ weight, blank control 42.5 ± 10.6) | Testis ([1]; organ weight, blank control 151.3 ± 28.2) | Prostate weights, Back part ([2]; model 7.8 ± 1.8) | Prostate weights, Abdominal part ([2]; model 11.3 ± 2.8) | Prostate weights, Side part ([2]; model 23.6 ± 6.2) | Prostate weights, Side part ([3]; 12 mg/kg ig once, model 73.3 ± 17.3) | Prostate weights, Back part ([3]; 12 mg/kg ig once, model 122.1 ± 23.3) | Prostate weights, Abdominal part ([3]; 12 mg/kg ig once, model 466.5 ± 79.1) | Degree of dilation or swelling of stroma blood vessels ([3]; score 0-3, abdominal part of prostate, 10 mg/kg, model 2.6 ± 0.5) | Degree of infiltration of neutrophils ([3]; score 0-4, abdominal part of prostate, 10 mg/kg, model 2.6 ± 1.3) | Swelling rate of ear auricle [4] | Swelling rate of ear auricle [5]
1 | C[C@]12CC[C@@H]3c4ccc(O)cc4CC[C@H]3[C@@H]1CC[C@@H]2O [Estradiol, estradiol] | 1.1 ± 0.9 mg | 1.7 ± 0.5 mg | 1.5 ± 1.3 mg | 7.3 ± 2.5 mg | 14.1 ± 3.3 mg | 58.0 ± 12.8 mg | 5.1 ± 1.6 mg | 7.0 ± 1.7 mg | 15.1 ± 2.7 mg |  |  |  |  |  |  | 
2 | COc1ccc2c(c1)c(CC(=O)O)c(C)n2C(=O)c1ccc(Cl)cc1 [Indomethacin, indomethacin] |  |  |  |  |  |  |  |  |  | 62.0 ± 12.3 mg | 128.6 ± 20.9 mg | 358.1 ± 79.2 mg | 2.1 ± 2.0 | 2.2 ± 1.3 | 6.4 ± 2.3 mg | 14.8 ± 5.1 mg
